* marks the point of attachment. For = O=C*
Key:
[1] = tested on: E. coli MccB; experiment: In vitro adenylation of MccA peptides by MccB, HPLC read-out; assay type: biochemical, Escherichia coli; details: 500 μM peptide, 5 μM MccB, 28°C, 20 min, HPLC 260 nm; for Yield of adenylated peptide (unformylated peptides): ATP
Protocol: In previous work, it was shown that E. coli MccB is able to modify a wide range of substrates in vivo and in vitro, including MBP protein with attached A7 peptide ([14]). To test MccB activity on elongated substrates encoded by pA11 and pA15, we incubated purified MccB with ATP and chemically synthesized A11 and A15 peptides and measured adenylated peptide yields by high-pressure liquid chromatography (HPLC) (Fig. 6). […] We next repeated the experiment with N-terminally formylated versions of each peptide that correspond to the products of ribosomal synthesis. […] We conclude that under our conditions, the presence of the formyl group on the N-terminal methionine residue selectively amplified the yields of MccA heptapeptide adenylation compared to adenylation yields of longer peptides A11 and A15.
FIG 6 In vitro adenylation of MccA peptides of different lengths by MccB. HPLC traces (260 nm) showing product formation after incubation of equal molar amounts of A7 (MRTGNAN), A11 (MGGGMRTGNAN), and A15 (MASTAGGGMRTGNAN) peptides and their N-terminally formylated variant peptides (marked with the f prefix) with MccB in the reaction buffer for 20 min at 28°C.
For adenylation efficiency measurements, 500 μM peptide was incubated with 5 μM MccB at 28°C for 20 min, and then the reaction was quenched with 0,1% TFA and analyzed using C18 reversed-phase chromatography (Symmetry C18, 5 μm, 4.6 mm by 150 mm; Waters). A 0% to 15% linear gradient of acetonitrile in 0.1% TFA was applied for elution. The identities of the compounds in the chromatographic fractions were confirmed by MALDI-TOF MS.

[2] = tested on: some strains of E. coli; details: cited from earlier work
Source text: Thus, the minimal set of three genes in an mcc cluster, encoding the precursor peptide, the adenylating enzyme, and the export pump protein, should be sufficient for production of McC-like antibacterial compounds. Bioinformatics searches reveal that genes coding for MccB-like proteins can be found in various bacteria that are phylogenetically distant from E. coli ([10]).

[3] = formylated versus unformylated peptide

Row | Substance | Increase in adenylated product yield on N-terminal formylation, compared to the unformylated peptide [1, 3] | Yield of adenylated peptide (unformylated peptides) [1] | Increase in adenylated product yield on N-terminal formylation, compared to the unformylated peptide ([1]; formylated versus unformylated peptide, listed as heptapeptide MccA) | Decrease in adenylated product yield on N-terminal formylation, compared to the unformylated peptide [1, 3] | Increase of toxicity of McC by the aminopropyl moiety [2]
1 | MGGGMRTGNAN [A11, 11-amino-acid MccA-based peptide […]] | ~2 fold | comparable yields |  |  | 
2 | MRTGNAN [A7, 7-amino-acid McC precursor peptide MRTGNAN, chemically synthesized] | approximately 8 fold | comparable yields | ~10 fold |  | 
3 | MASTAGGGMRTGNAN [A15, 15-amino-acid MccA-based peptide […]] |  | comparable yields |  | ~3 fold | 
4 | Microcin C (For-MRTGNAN-{adenylate (N-P bond, aminopropyl on phosphoramidate)}) [McC, heptapeptide adenylate antibiotic, formylated, with aminopropyl on the phosphoramidate] |  |  |  |  | 4- to 10 fold

Reference: PMC6495379, “Reiterative Synthesis by the Ribosome and Recognition of the N-Terminal Formyl Group by Biosynthetic Machinery Contribute to Evolutionary Conservation of the Length of Antibiotic Microcin C Peptide Precursor” (mBio, 2019)
